Consider three compounds from patent US20060165603A1, “Solubilisation of drugs in hfa propellant by means of emulsions” (Chiesi Farmaceutici S.p.A., priority 2002, published 2006).

Series [1] is described as follows: Emulsion formation of pMDI formulations in HFA propellant (visual). Format: physicochemical. As to conditions: 5% w/w water, 25 μg/50 μl drug; for Comment (emulsion formation): HFA227. The method, then:
(§1) Samples were prepared in clear glass formulation vials. The surfactants were added first followed by water then the other components of the formulation were added and the weight of bottle recorded after each addition. Final compositions were calculated as percentage w/w. Valves were crimped onto plastic-coated bottles or anodized aluminium cans before being placed in a sonicator for 5 minutes to allow as much dissolution of surfactants in the water as possible. The propellant was filled through the valve and the final weight of the packaged formulation recorded. In the case of the emulsions the packaged formulations were either shaken vigorously by hand or gently warmed in the hand (sonication where necessary) to induce an emulsion.
The surfactants used for these formulations are a Span85/AOT blend and the Synperonics L64.

Series [2] in a line: Microemulsion formation / appearance of formulations in HFA227. The series is classed as physicochemical. As to conditions: 10% surfactant, 20% EtOH, HFA 227, 5% w/w water. On the procedure:
as §1, with “emulsion. For the microemulsion formulations the same method was used except the ethanol was added just before crimping and no sonication was required after HFA addition as a clear formulation was obtained immediately.” for “emulsion.”
The following table 3 lists the various microemulsion formulations prepared with Synperonic L64, AOT, and the fluorinated surfactant Zonyl FSN. L64 and Zonyl FSN produced clear systems.

Structures can show the parent of a compound that is named as a salt.

With `CN1CCc2cccc3c2[C@H]1Cc1ccc(O)c(O)c1-3` [Apomorphine Hydrochloride, apomorphine hydrochloride], the “Comment (emulsion formation)” value in series [1] (0.1% Span85, 0.05% AOT) is reported as “Emulsion”; in series [1] (0.4% Span85, 0.05% AOT), “Emulsion”. Also, the “Emulsion formation, HFA 134a” value in series [1] (0.1% Synperonic L64), in series [1] (0.5% Synperonic L64) and in series [1] (1% Synperonic L64) was “Emulsion” throughout. Besides, the “Emulsion formation, HFA 227” value in series [1] (0.1% Synperonic L64), in series [1] (0.5% Synperonic L64) and in series [1] (1% Synperonic L64) was “Emulsion” in each case.

In the case of `CCC(=O)Oc1ccc2c(c1)CC[C@@H]1[C@@H]2CC[C@]2(C)[C@@H](OC(=O)CC)CC[C@@H]12` [Oestradiol Dipropionate, oestradiol dipropionate], the “Comment (emulsion formation)” value in series [1] (0.1% Span85, 0.01% AOT) is listed as “Emulsion”; in series [1] (0.1% Span85, 0.05% AOT), “Emulsion”. Besides, the “Emulsion formation, HFA 134a” value in series [1] (0.1% Synperonic L64), in series [1] (0.5% Synperonic L64) and in series [1] (1% Synperonic L64) was “Emulsion” each time. For the same compound, the “Emulsion formation, HFA 227” value in series [1] (0.5% Synperonic L64) and in series [1] (1% Synperonic L64) was “Immediate emulsion” throughout.

Take sodium dioctylsulpho-succinate [AOT]: in series [2], the “Comment (microemulsion formulation appearance)” value was “Slight cloud, one apparent phase”.
